The values below come from patent US20260049089A1, “KRAS INHIBITOR COMPOUND” (SHANGHAI APEIRON THERAPEUTICS COMPANY LIMITED, priority 2022, published 2026).

Holding throughout (type): cell-based
For one test, the system named is pERK in AGS cells. The test is described as follows: ERK phosphorylation cell assay, AGS. The following applies: 3 hours compound incubation, read-out: pERK AGS_IC50. The procedure: (§1) • Day 1: AGS cells were seeded into a 384-well cell culture plate and incubated overnight at 37° C. with 5% CO2 in a cell culture incubator. • Day 2: Compounds were added to the plate using an Echo550 liquid handler, followed by incubation at 37° C. with 5% CO2 in a cell culture incubator for 3 hours. Subsequently, the cells were fixed with paraformaldehyde, permeabilized with methanol, and blocked with blocking buffer. A primary antibody mixture (rabbit anti-pERK, mouse anti-GAPDH) was added, and the plate was incubated overnight at 4° C. • Day 3: The primary antibodies were removed, and a secondary antibody mixture (goat anti-rabbit 800CW, goat anti-mouse 680RD) was added. The plate was incubated at room temperature in the dark. After three washes with PBST, the plate was inverted and centrifuged for 1 minute. Fluorescence signal values were read using an Odyssey CLx imaging system.
(§2) [formula] • Negative control: DMSO • Positive control: 10 μM Reference • Fitted using XLFit 5.0 with the following parameters:
(§3) [formula] • X: Log of compound concentration • Y: Mean relative expression levels of p-ERK across replicates

A further test relates to pERK in AsPC-1 cells. Nature of the test: ERK phosphorylation cell assay, AsPC-1. The following applies: read-out: pERK AsPC-1_IC50. How it is done: [Worded in the source for another cell line; this cell line is reported under the same test.] as §1, §2, §3
The subject of the next test is AGS cells. Nature of the test: 3D cell proliferation assay (CellTiter-Glo 3D), AGS. The following applies: 5 days, read-out: 3D Proliferation Inhibition AGS_IC50. The procedure: (§4) Using a nanoliter liquid handling system (LABCYTE, P-0200), the diluted test compounds were added to a 384-well low-adsorption cell culture plate. Cells were seeded into the wells, and the plate was placed in an incubator at 37° C. with 5% CO2. After co-incubating the compounds and cells for 5 days, CellTiter-Glo® 3D reagent was added. Luminescence values were measured using an EnVision Multilabel Plate Reader (luminescence is proportional to the ATP content in the system, and ATP content directly reflects the number of viable cells). Finally, the IC50 values (half-maximal inhibitory concentrations) of the compounds were determined using non-linear fitting equations in XLFit software with the following parameters: […]
(§5) X: Logarithm of compound concentration • Y: Inhibition rate (%)
(§6) [formula] • Negative control: DMSO • Positive control: Medium only
A general note: Cellular ATP, detected with luciferase, serves as a proxy for viable cell number.

The next test has as its system AsPC-1 cells. The test is described as follows: 3D cell proliferation assay (CellTiter-Glo 3D), AsPC-1. As to conditions: 5 days, read-out: 3D Proliferation Inhibition AsPC-1_IC50. The procedure: as §4, §5, §6
Setting [1] is: Homo sapiens, ASPC1, AsPC-1 cells.

Like-named read-outs stand apart in the source and are kept apart here.

With `C[C@@]1(O)CCCN(c2nc(OCC34CCCN3CC(=CF)C4)nc3c(F)c4c(cc23)NCCCCCc2c(F)ccc3cc(O)cc-4c23)C1` (some centres unmarked) [Example 30], the IC50 in the test with pERK in AGS cells (Homo sapiens, AGS, 3 h) amounted to 55 nM; with pERK in AsPC-1 cells (setting [1]) it was 171 nM; in the test with AGS cells (Homo sapiens, AGS, 120 h), 177 nM; with AsPC-1 cells (Homo sapiens, ASPC1, 120 h), 534 nM.

`C[C@@]1(O)CCCN(c2nc(OCC34CCCN3CC(F)(F)C4)nc3c(F)c4c(cc23)NCCCCCc2c(F)ccc3cc(O)cc-4c23)C1` (some centres unmarked) [Example 36]: the IC50 was 1390 nM in the test with pERK in AGS cells (Homo sapiens, AGS, 3 h); 3910 nM in the test with pERK in AsPC-1 cells (setting [1]); 1880 nM with AGS cells (Homo sapiens, AGS, 120 h); 2480 nM with AsPC-1 cells (Homo sapiens, ASPC1, 120 h).

Turning to `CN1CCCCCc2c(F)ccc3cc(O)cc(c23)-c2c1cc1c(N3CCC[C@@](C)(O)C3)nc(OC[C@@]34CCCN3C[C@H](F)C4)nc1c2F` (single isomer, unassigned) [Example 6A], the values for the IC50 with pERK in AGS cells, with AGS cells and in the test with AsPC-1 cells were 30 nM, 127 nM and 202 nM, respectively.

With `C=C1CN2CCCC2(COc2nc(N3CCC[C@@](C)(O)C3)c3cc4c(c(F)c3n2)-c2cc(N)cc3ccc(F)c(c23)CCCCCN4)C1` (stereo partly drawn) [Example 40, (3R)-1-(17-amino-3,15-difluoro-13-((2-methylenetetrahydro-1H-pyrazin-7a(5H)-yl)methoxy)-4,5,6,7,8,9-hexahydronaphtho[1′,8′:4,5,6][1]azacycloundecano[2,3-g]quinazolin-11-yl)-3-methylpiperidin-3-ol], the IC50 in the test with pERK in AGS cells (Homo sapiens, AGS, 3 h) was 9110 nM; with pERK in AsPC-1 cells (setting [1]), > 10000 nM; in the test on AGS cells (Homo sapiens, AGS, 120 h) it was 2050 nM; in the test on AsPC-1 cells (Homo sapiens, ASPC1, 120 h), 2170 nM.

For the molecule `Oc1cc2c3c(c(F)ccc3c1)CCCCCCNc1cc3c(N4CC5CCC(C4)N5)nc(OC[C@@]45CCCN4C[C@H](F)C5)nc3c(F)c1-2` [Example 8], the IC50 in the test with pERK in AGS cells (Homo sapiens, AGS, 3 h) was found to be 73 nM; in the test on pERK in AsPC-1 cells (setting [1]) it was 278 nM; in the test with AGS cells (Homo sapiens, AGS, 120 h) it was 255 nM; with AsPC-1 cells (Homo sapiens, ASPC1, 120 h) it was 682 nM.

Take `C=C1CN2CCCC2(COc2nc(N3CCC[C@@](C)(O)C3)c3cc4c(c(F)c3n2)-c2cc(O)cc3ccc(F)c(c23)CCCCCN4C)C1` (single isomer, unassigned) [Example 22B]: the IC50 in the test on pERK in AGS cells was 430 nM; in the test with pERK in AsPC-1 cells (AsPC-1 cells) it was 898 nM; in the test with AGS cells, 553 nM; in the test with AsPC-1 cells, 1790 nM.

Turning to `O=C1CCCCc2c(F)ccc3cc(O)cc(c23)-c2c(cc3c(N4CC5CCC(C4)N5)nc(OC[C@@]45CCCN4C[C@H](F)C5)nc3c2F)N1` [Example 4], the IC50 is 331 nM with pERK in AGS cells (Homo sapiens, AGS, 3 h); 848 nM in the test on AGS cells (Homo sapiens, AGS, 120 h); 4870 nM in the test with AsPC-1 cells (Homo sapiens, ASPC1, 120 h).

For `CN1CCCCCc2c(F)ccc3cc(O)cc(c23)-c2c1cc1c(N3CCC[C@@](C)(O)C3)nc(OC[C@@]34CCCN3C[C@H](F)C4)nc1c2F` (single isomer, unassigned) [Example 6B], the IC50 turned out to be 450 nM with pERK in AGS cells, 1040 nM in the test with AGS cells and 1370 nM in the test on AsPC-1 cells.

In the case of `C=C1CN2CCCC2(COc2nc(N3CCC[C@@](C)(O)C3)c3cc4c(c(F)c3n2)-c2cc(O)cc3ccc(F)c(c23)CCCCCN4S(C)(=O)=O)C1` (stereo partly drawn) [Example 45, 3,15-difluoro-11-((R)-3-hydroxy-3-methylpiperidin-1-yl)-13-((2-methylenetetrahydro-1H-pyrazin-7a(5H)-yl)methoxy)-9-(methylsulfonyl)-4,5,6,7,8,9-hexahydronaphtho[1′,8′:4,5,6][1]azacycloundecano[2,3-g]quinazolin-17-ol], the IC50 in the test with pERK in AGS cells (Homo sapiens, AGS, 3 h) is 3390 nM; in the test on AGS cells (Homo sapiens, AGS, 120 h), 3210 nM; with AsPC-1 cells (Homo sapiens, ASPC1, 120 h) it was 4090 nM.

Take `C=C1CN2CCCC2(COc2nc(N3CCC[C@@](C)(O)C3)c3cc4c(c(F)c3n2)-c2cc(O)cc3ccc(F)c(c23)CCCCCN4)C1` (some centres unmarked) [Example 25]: the IC50 with AGS cells (Homo sapiens, AGS, 120 h) came out at 112 nM; with AsPC-1 cells (Homo sapiens, ASPC1, 120 h), 336 nM.

On to `[2H]C([2H])([2H])N1C(=O)CCCCc2c(F)ccc3cc(O)cc(c23)-c2c1cc1c(N3CCC[C@@](C)(O)C3)nc(OC[C@@]34CCCN3C[C@H](F)C4)nc1c2F` [Example 41, 3,15-Difluoro-13-(((2R,7aS)-2-fluoro-tetrahydro-1H-pyrazin-7a(5H)-yl)methoxy)-17-hydroxy-11-((R)-3-hydroxy-3-methylpiperidin-1-yl)-9-(trideuteromethyl)-4,5,6,7-tetrahydronaphtho[1′,8′:4,5,6][1]azacycloundecino[2,3-g]quinazolin-8(9H)-one], for which the IC50 with pERK in AGS cells (Homo sapiens, AGS, 3 h) was 307 nM; with pERK in AsPC-1 cells (setting [1]) it was 2790 nM.

For the molecule `C=C1CN2CCCC2(COc2nc(N3CCC[C@@](C)(O)C3)c3cc4c(c(F)c3n2)-c2cc(O)cc3ccc(F)c(c23)CC/C=C\CN4)C1` (stereo partly drawn) [Example 32, (Z)-3,15-difluoro-11-((R)-3-hydroxy-3-methylpiperidin-1-yl)-13-((2-methylenetetrahydro-1H-pyrazin-7a(5H)-yl)methoxy)-4,5,8,9-tetrahydronaphtho[1′,8′:4,5,6][1]azacycloondecano[2,3-g]quinazolin-17-ol], the IC50 was found to be 652 nM in the test on pERK in AGS cells (Homo sapiens, AGS, 3 h) and 1140 nM with pERK in AsPC-1 cells (setting [1]).

With `CCN1CCCc2c(F)ccc3cc(O)cc(c23)-c2c(cc3c(N4CC5CCC(C4)N5)nc(OC[C@@]45CCCN4C[C@H](F)C5)nc3c2F)C1=O` [Example 13, 10-((1R,5S)-3,8-diazabicyclo[3.2.1]oct-3-yl)-7-ethyl-3,14-difluoro-12-(((2R,7aS)-2-fluorotetrahydro-1H-pyrazin-7a(5H)-yl)methoxy)-16-hydroxy-4,5,6,7-tetrahydro-8H-naphtho[1′,8′:5,6,7]acrylo[3,4-g]quinazolin-8-one], the IC50 in the test with pERK in AGS cells (Homo sapiens, AGS, 3 h) was determined as 3950 nM; with pERK in AsPC-1 cells (setting [1]), 8040 nM.

Regarding `C[C@@]1(O)CCCN(c2nc(OCC34CCCN3CCC4)nc3c(F)c4c(cc23)NCCCCCc2c(F)ccc3cccc-4c23)C1` [Example 7, (R)-1-(3,15-Difluoro-13-((tetrahydro-1H-pyrazin-7a(5H)-yl)methoxy)-4,5,6,7,8,9-hexahydronaphtho[1′,8′:4,5,6]azecino[2,3-g]quinazolin-11-yl)-3-methylpiperidin-3-ol], the IC50 in the test with pERK in AGS cells (Homo sapiens, AGS, 3 h) turned out to be 3470 nM; in the test on AGS cells (Homo sapiens, AGS, 120 h), 2290 nM; in the test with AsPC-1 cells (Homo sapiens, ASPC1, 120 h) it was 2860 nM.

Consider `C=C1CN2CCCC2(COc2nc(N3CCC[C@@](C)(O)C3)c3cc4c(c(F)c3n2)-c2cc(O)cc3ccc(F)c(c23)CCCCCN4C(C)=O)C1` (stereo partly drawn) [Example 44, 1-(3,15-Difluoro-17-hydroxy-11-((R)-3-hydroxy-3-methylpiperidin-1-yl)-13-((2-methylene-tetrahydro-1H-pyrazin-7a(5H)-yl)methoxy)-5,6,7,8-tetrahydronaphtho[1′,8′:4,5,6][1]azacycloundecino[2,3-g]quinazolin-9(4H)-yl)ethan-1-one], for which the IC50 in the test on pERK in AGS cells (Homo sapiens) came out at 490 nM; in the test with AGS cells (Homo sapiens, 120 h) it was 1860 nM; with AsPC-1 cells (Homo sapiens, ASPC1, 120 h) it was 3900 nM.

For `C[C@@]1(O)CCCN(c2nc(OCC34CCC(CC3)CO4)nc3c(F)c4c(cc23)NCCCCCc2c(F)ccc3cc(O)cc-4c23)C1` [Example 18A], the IC50 is > 10000 nM with pERK in AGS cells (Homo sapiens, AGS, 3 h) and > 10000 nM in the test with pERK in AsPC-1 cells (setting [1]).

For `O=C1NCCCc2c(F)ccc3cc(O)cc(c23)-c2c1cc1c(N3CC4CCC(C3)N4)nc(OC[C@@]34CCCN3C[C@H](F)C4)nc1c2F` [Example 12, 10-((1R,5S)-3,8-diazabicyclo[3.2.1]oct-3-yl)-3,14-difluoro-12-(((2R,7aS)-2-fluorotetrahydro-1H-pyrazin-7a(5H)-yl)methoxy)-16-hydroxy-4,5,6,7-tetrahydro-8H-naphtho[1′,8′:5,6,7]acredo [3,4-g]quinazolin-8-one], the IC50 is 5430 nM in the test on pERK in AGS cells (Homo sapiens, AGS, 3 h) and > 10000 nM in the test on pERK in AsPC-1 cells (setting [1]).
